Laboratory results taken from US10688082B2, “Aminopyrazine compounds with A2A antagonist properties” (Merck Sharp & Dohme Corp., priority 2015, dated 2020).
pKi: −log10 of the molar value.

molecular target: T1, human A2a receptor (Homo sapiens, UniProt P29274); assay: Competition binding assay using Scintillation Proximity technology (A2a activity); conditions: membranes from HEK293 cells expressing the human A2a receptor; 0.5 nM tritiated ligand; Cheng-Prusoff
T1 construct: purchased Perkin-Elmer RBHA2AM400UA; host or cells: HEK293 cells (membranes)
Procedure: Binding affinities of compounds of the invention for the human A2a receptor were determined in a competition binding assay using Scintillation Proximity technology. Thus, […] from HEK293 cells expressing the human A2a receptor were incubated with a compound of the invention at concentrations ranging from 3000 nM to 0.15 nM in a reaction mixture containing also 0.5 nM of a tritiated form of 5-amino-7-[2-phenethyl]-2-(furan-2-yl)-7H-pyrazolo[4,3-e][1,2,4]triazolo[1,5-c]pyrimidine (the tritiated compound) and 100 μg of wheat germ agglutin-coated yttrium silicate SPA beads for one hour at room temperature with agitation. The beads were then allowed to settle to the bottom of the wells for 1 hr, after which the membrane-associated radioactivity was determined by scintillation counting in a TopCount microplate reader. Ki values were determined using the Cheng-Prusoff equation.
HEK293 cells expressing the human, rat, dog or monkey adenosine 2a receptor (Purchased from Perkin-Elmer # RBHA2AM400UA).
The Tritiated compound was prepared according to published methods.
Wheat germ agglutinin-coated yttrium silicate SPA beads (GE Healthcare # RPNQ0023). Dilute to 25 mg/ml in assay buffer.
Assay Buffer was prepared using Dulbecco's calcium and magnesium free phosphate buffered saline+10 mM MgCl2
Adenosine deaminase from calf intestine, 10 mg/2 ml (Roche #10 102 105 001).
A2a antagonist standard (9-chloro-1-(2-furanyl)-[1,2,4]triazolo1,5-c]quinazolin-5-amine from Tocris Bioscience)
Make eight 1:3 serial dilutions in 100% DMSO from a 3 mM compound stock
Transfer 50 nl of compound into a 384-well OptiPlate (Perkin Elmer).
Typically, final concentrations of compound used in the assay ranged from 3000 nM to 0.152 nM.
Dilute a solution of the Tritiated compound to 1.25 nM in assay buffer. This is a 2.5× solution. The final concentration in the assay is 0.5 nM. Calculate the concentration by counting two 5 μl aliquots.
Use 0.25 ug of membrane/well. Dilute membranes to 9.7 μg/ml in assay buffer. Treat with 20 ug/ml adenosine deaminase (ADA) for 15 minutes at room temperature to degrade endogenous adenosine.
Use 100 μg/well wheat germ agglutinin-coated yttrium silicate SPA beads.
Mix ADA-treated membranes and SPA beads together for 30 min prior to assay.
To the Perkin-Elmer Optiplate-384 containing the compound titration add 20 μl of 2.5× solution of the Tritiated compound and 30 μl of the membrane-bead mixture. Incubate for one hour at room temperature with agitation.
Include total binding (assay buffer+1% DMSO) and non-specific binding (CGS15943, 1 μM) wells.
Allow the beads to settle for one hour.
A curve fitting program (i.e., Prism, Activity Base, Chemcart) is used to determine the EC50. The Ki value is calculated using the Cheng-Prusoff equation. K i=EC50/(1+(radioligand concentration/Kd))

T1 sequence (P29274 whole entry): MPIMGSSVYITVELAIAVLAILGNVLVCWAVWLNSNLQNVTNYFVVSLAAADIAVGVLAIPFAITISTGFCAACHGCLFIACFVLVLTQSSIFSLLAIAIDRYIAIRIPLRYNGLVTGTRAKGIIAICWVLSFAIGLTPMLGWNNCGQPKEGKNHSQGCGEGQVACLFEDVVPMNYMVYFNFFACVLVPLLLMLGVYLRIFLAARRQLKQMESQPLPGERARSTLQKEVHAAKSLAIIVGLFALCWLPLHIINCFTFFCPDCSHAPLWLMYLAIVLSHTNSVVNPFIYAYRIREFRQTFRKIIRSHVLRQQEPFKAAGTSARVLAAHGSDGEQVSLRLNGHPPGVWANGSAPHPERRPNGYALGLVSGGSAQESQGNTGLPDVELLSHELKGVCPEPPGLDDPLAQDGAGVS

| Compound | pKi |
| --- | --- |
| COc1cccc2c1nc(N)n1nc(C(=O)NCc3ccc(Br)cc3F)cc21 [Ex-79, 5-amino-N-(4-bromo-2-fluorobenzyl)-7-methoxypyrazolo[1,5-c]quinazoline-2-carboxamide] | 9.00 |
| COc1cccc2c1nc(N)n1nc(C(=O)Nc3ccccc3)cc21 [Ex-80, 5-amino-7-methoxy-N-phenylpyrazolo[1,5-c]quinazoline-2-carboxamide] | 8.52 |
| COc1cccc2c1nc(N)n1nc(C(=O)N(C)Cc3ccccc3)cc21 [Ex-81, 5-amino-N-benzyl-7-methoxy-N-methylpyrazolo[1,5-c]quinazoline-2-carboxamide] | 8.40 |
| COc1cccc2c1nc(N)n1nc(C(=O)N(C)Cc3cccc4cccnc34)cc21 [Ex-82, 5-amino-7-methoxy-N-methyl-N-(quinolin-8-ylmethyl)pyrazolo[1,5-c]quinazoline-2-carboxamide] | 8.15 |
| COc1cccc2c1nc(N)n1nc(C(=O)N3CCC4(CCN(C(=O)OC(C)(C)C)C4)CC3)cc21 [Ex-83, tert-butyl 8-(5-amino-7-methoxy-pyrazolo[1,5-c]quinazoline-2-carbonyl)-2,8-diazaspiro[4.5]decane-2-carboxylate] | 7.10 |
| COc1cccc2c1nc(N)n1nc(C(=O)N3CCC4(CCNC4)CC3)cc21 [Ex-84, (5-amino-7-methoxypyrazolo[1,5-c]quinazolin-2-yl)(2,8-diazaspiro[4.5]decan-8-yl)methanone] | 6.61 |
| COc1cccc2c1nc(N)n1nc(C(=O)N3CCC4(CCN(C(=O)OC(C)(C)C)C4)C3)cc21 (centres unmarked) [Ex-85, tert-butyl 7-(5-amino-7-methoxypyrazolo[1,5-c]quinazoline-2-carbonyl)-2,7-diazaspiro[4.4]nonane-2-carboxylate] | 7.96 |
| COc1cccc2c1nc(N)n1nc(C(=O)N3CCC4(CCNC4)C3)cc21 (centres unmarked) [Ex-86, (5-amino-7-methoxypyrazolo[1,5-c]quinazolin-2-yl)(2,7-diazaspiro[4.4]nonan-2-yl)methanone] | 7.11 |
| COc1cccc2c1nc(N)n1nc(C(=O)N3CCC4(CCN(C(C)=O)C4)C3)cc21 (centres unmarked) [Ex-87, 1-(7-(5-amino-7-methoxypyrazolo[1,5-c]quinazoline-2-carbonyl)-2,7-diazaspiro[4.4]nonan-2-yl)ethan-1-one] | 8.05 |
| COC(=O)N1CCC2(CCN(C(=O)c3cc4c5cccc(OC)c5nc(N)n4n3)C2)C1 (centres unmarked) [Ex-88, methyl 7-(5-amino-7-methoxypyrazolo[1,5-c]quinazoline-2-carbonyl)-2,7-diazaspiro[4.4]nonane-2-carboxylate] | 8.15 |
| CCN1CCC2(CCN(C(=O)c3cc4c5cccc(OC)c5nc(N)n4n3)C2)C1 (centres unmarked) [Ex-89, (5-amino-7-methoxypyrazolo[1,5-c]quinazolin-2-yl)(7-ethyl-2,7-diazaspiro[4.4]nonan-2-yl)methanone] | 7.37 |
| COc1cccc2c1nc(N)n1nc(C(=O)N3CCC4(CCN(Cc5ccccc5)C4)C3)cc21 (centres unmarked) [Ex-90, (5-amino-7-methoxypyrazolo[1,5-c]quinazolin-2-yl)(7-benzyl-2,7-diazaspiro[4.4]nonan-2-yl)methanone] | 7.30 |
| COc1cccc2c1nc(N)n1nc(C(=O)NCc3cccc4cccnc34)cc21 [Ex-91, 5-amino-7-methoxy-N-(quinolin-8-ylmethyl)pyrazolo[1,5-c]quinazoline-2-carboxamide] | 9.40 |
| COc1cccc2c1nc(N)n1nc(-c3nc(-c4ccccc4)no3)cc21 [Ex-92, 7-methoxy-2-(3-phenyl-1,2,4-oxadiazol-5-yl)pyrazolo[1,5-c]quinazolin-5-amine] | 7.00 |
| COc1cccc2c1nc(N)n1nc(-c3nc(Cc4ccccc4)no3)cc21 [Ex-93, 2-(3-benzyl-1,2,4-oxadiazol-5-yl)-7-methoxypyrazolo[1,5-c]quinazolin-5-amine] | 7.35 |
| Nc1nc2ccccc2c2cc(Cc3cccc4cccnc34)nn12 [Ex-94, 2-(quinolin-8-ylmethyl)pyrazolo[1,5-c]quinazolin-5-amine] | 8.00 |
| Nc1nc2ccccc2c2cc(Cc3ccnc4ccccc34)nn12 [Ex-95, 2-(quinolin-4-ylmethyl)pyrazolo[1,5-c]quinazolin-5-amine] | 7.17 |
| Nc1nc2ccccc2c2cc(Cc3ccccc3N3CCOCC3)nn12 [Ex-96, 2-(2-morpholinobenzyl)pyrazolo[1,5c]-quinazolin-5-amine] | 7.28 |
| Nc1nc2ccccc2c2cc(Cc3ccccc3CN3CCOCC3)nn12 [Ex-97, 2-(2-(morpholinomethyl)-bcnzyl)pyrazolo[1,5-c]-quinazolin-5-amine] | 7.29 |
| COc1cccc2c1nc(N)n1nc(-c3nnc(-c4cccc5cccnc45)o3)cc21 [Ex-100, 7-methoxy-2-(5-(quinolin-8-yl)-1,3,4-oxadiazol-2-yl)pyrazolo[1,5-c]quinazolin-5-amine] | 7.72 |
| COc1cccc2c1nc(N)n1nc(-c3nnc(N4CCOCC4)o3)cc21 [Ex-101, 7-methoxy-2-(5-morpholino-1,3,4-oxadiazol-2-yl)pyrazolo[1,5-c]quinazolin-5-amine] | 7.41 |
| COc1cccc2c1nc(N)n1nc(-c3nnc(N4CCN(c5ccccc5)CC4)o3)cc21 [Ex-102, 7-methoxy-2-(5-(4-phenylpiperazin-1-yl)-1,3,4-oxadiazol-2-yl)pyrazolo[1,5-c]quinazolin-5-amine] | 7.48 |
| COc1cccc2c1nc(N)n1nc(-c3nnc(NCc4ccc(F)cc4F)o3)cc21 [Ex-103, 5-(5-amino-7-methoxypyrazolo[1,5-c]quinazolin-2-yl)-N-(2,4-difluorobenzyl)-1,3,4-oxadiazol-2-amine] | 7.64 |
| Nc1nc2ccc(F)cc2c2cc(Cc3ccccc3)nn12 [Ex-104, 2-benzyl-9-fluoropyrazolo[1,5-c]quinazolin-5-amine] | 7.17 |

Results, then the molecule that gave them:

| pKi | Compound |
| --- | --- |
| 7.35 | Nc1nc2ccc(F)cc2c2cc(Cc3cccc4cccnc34)nn12 [Ex-105, 9-fluoro-2-(quinolin-8-ylmethyl)pyrazolo[1,5-c]quinazolin-5-amine] |
| 7.19 | Nc1nc2ccc(F)cc2c2cc(Cc3ccccc3N3CCOCC3)nn12 [Ex-106, 9-fluoro-2-(2-morpholinobenzyl)pyrazolo[1,5-c]quinazolin-5-amine] |
| 6.91 | Nc1nc2ccc(F)cc2c2cc(Cc3cccnc3N3CCOCC3)nn12 [Ex-107, 9-fluoro-2-((2-morpholinopyridin-3-yl)methyl)pyrazolo[1,5-c]quinazolin-5-amine] |
| 7.85 | Nc1nc2c(F)cccc2c2cc(Cc3ccccc3)nn12 [Ex-108, 2-benzyl-7-fluoropyrazolo[1,5-c]quinazolin-5-amine] |
| 8.22 | Nc1nc2c(F)cccc2c2cc(Cc3cccc4cccnc34)nn12 [Ex-109, 7-fluoro-2-(quinolin-8-ylmethyl)pyrazolo[1,5-c]quinazolin-5-amine] |
| 7.49 | Nc1nc2c(F)cccc2c2cc(C(=O)N3CCN(c4ccccn4)CC3)nn12 [Ex-110, (5-amino-7-fluoropyrazolo[1,5-c]quinazolin-2-yl)(4-(pyridin-2-yl)piperazin-1-yl)methanone] |
| 7.03 | Nc1nc2c(F)cccc2c2cc(C(=O)N3CCN(c4ccc(F)cc4F)CC3)nn12 [Ex-111, (5-amino-7-fluoropyrazolo[1,5-c]quinazolin-2-yl)(4-(2,4-difluorophenyl)piperazin-1-yl)methanone] |
| 6.88 | Nc1nc2c(F)cccc2c2cc(-c3nnc(-c4cccc5cccnc45)o3)nn12 [Ex-112, 7-fluoro-2-(5-(quinolin-8-yl)-1,3,4-oxadiazol-2-yl)pyrazolo[1,5-c]quinazolin-5-amine] |
| 8.15 | Nc1nc2c(F)cccc2c2cc(-c3nnc(Cc4ccc5cccnc5c4)o3)nn12 [Ex-113, 7-fluoro-2-(5-(quinolin-7-ylmethyl)-1,3,4-oxadiazol-2-yl)pyrazolo[1,5-c]quinazolin-5-amine] |
| 8.10 | Nc1nc2ccc(F)cc2c2cc(C(=O)N3CCN(c4ccc(F)cc4F)CC3)nn12 [Ex-114, (5-amino-9-fluoropyrazolo[1,5-c]-quinazolin-2-yl)(4-(2,4-difluorophenyl)piperazin-1-yl)methanone] |
| 7.39 | Nc1nc2ccc(F)cc2c2cc(C(=O)N3CCN(c4ccccn4)CC3)nn12 [Ex-115, (5-amino-9-fluoropyrazolo[1,5-c]-quinazolin-2-yl)(4-(pyridin-2-yl)-piperazin-1-yl)methanone] |
